According to patent publication US20110245496A1, “Quinazoline Salt Compounds” (priority 2007, published 2011):
Values joined by “and” are separate entries in the source; they are usually repeats but may differ in a detail not shown here. Equal values may be shown once.

Key:
[1] = Salt solubility measurement in water; conditions: for pH of the remaining solution: remaining solution after solubility measurement in water; for Solubility as free base / solubility / Solubility as salt: water, stirred at ambient temperature 18-20 hours, filtered, hplc assay; for solubility: thermodynamic from solid
[2] = tested on: gastric tumor (N87) cell line; test: Methylene blue growth inhibition assay, N87; type: cell-based; conditions: Homo sapiens, 72 h, N87 cells, 3 days
Description: (§1) Human breast (BT474), head and neck (HN5) and gastric tumor (N87) cell lines and human foreskin Fibroblasts (HFF) were cultured in low glucose DMEM (Life Technologies 12320-032) containing 10% fetal bovine serum (FBS) at 37° C. in a humidified 10% CO2, 90% air incubator. The SV40 transformed human mammary epithelial cell line HB4a was transfected with either human H-ras cDNA (HB4a r4.2) or the human c-erbB2 cDNA (HB4a c5.2). The HB4a clones were cultured in RPMI containing 10% FBS, insulin ([…]), hydrocortisone ([…]), supplemented with the selection agent hygromycin B (50 μg/ml). Cells were harvested using trypsin/EDTA, counted using a haemocytometer, and plated in […] of the appropriate media, at the following densities, in a 96-well tissue culture plate (Falcon 3075): BT474 10,000 cells/well, HN5 3,000 cells/well, N87 10,000 cells/well, HB4a c5.2 3,000 cells/well, HB4a r4.2 3,000 cells/well, HFF 2500 cells/well. The next day, compounds were diluted in DMEM containing […] gentamicin, at twice the final required concentration, from 10 mM stock solutions in DMSO. […] of these dilutions were added to the […] of media currently on the cell plates. Medium containing 0.6% DMSO was added to control wells. […] Optical density at 620 nm was measured on a microplate reader. Percent inhibition of cell growth was calculated relative to vehicle treated control wells. […]

breast (BT474) cell line = test: Methylene blue growth inhibition assay, BT474; type: cell-based; conditions: Homo sapiens, BT-474, 72 h, BT474 cells, 3 days
Description: as §1

[3] = tested on: head and neck (HN5) cell line; test: Methylene blue growth inhibition assay, HN5; type: cell-based; conditions: Homo sapiens, 72 h, HN5 cells, 3 days
Description: as §1

Molecule | Solubility as free base [1] | solubility ([1]; Solubility as free base) [µg/mL] | solubility ([1]; Solubility as salt) [µg/mL] | further results
Lapatinib Difumarate | <LoD | – | – | pH of the remaining solution [1]: 3.0
CS(=O)(=O)CCNCc1ccc(-c2ccc3ncnc(Nc4ccc(OCc5cccc(F)c5)c(Cl)c4)c3c2)o1.C[C@H](O)C(=O)O.C[C@H](O)C(=O)O [Di-L-lactate, N-{3-Chloro-4-[(3-fluorobenzyl)oxy]phenyl}-6-[5-({[2-(methanesulphonyl)ethyl]amino}methyl)-2-furyl]-4-quinazolinamine di-L-lactate] | – | > 10300 | > 13500 | –
CS(=O)(=O)CCNCc1ccc(-c2ccc3ncnc(Nc4ccc(OCc5cccc(F)c5)c(Cl)c4)c3c2)o1.CS(=O)(=O)O.CS(=O)(=O)O [Dimesylate, N-{3-Chloro-4-[(3-fluorobenzyl)oxy]phenyl}-6-[5-({[2-(methanesulphonyl)ethyl]amino}methyl)-2-furyl]-4-quinazolinamine dimesylate] | – | > 7350 | > 10000 | –
CCS(=O)(=O)O.CCS(=O)(=O)O.CS(=O)(=O)CCNCc1ccc(-c2ccc3ncnc(Nc4ccc(OCc5cccc(F)c5)c(Cl)c4)c3c2)o1 [Diesylate, N-{3-Chloro-4-[(3-fluorobenzyl)oxy]phenyl}-6-[5-({[2-(methanesulphonyl)ethyl]amino}methyl)-2-furyl]-4-quinazolinamine diesylate] | – | ~19700 | ~27200 | –
CS(=O)(=O)CCNCc1ccc(-c2ccc3ncnc(Nc4ccc(OCc5cccc(F)c5)c(Cl)c4)c3c2)o1.CS(=O)(=O)O.CS(=O)(=O)O.O [Dimesylate monohydrate, N-{3-Chloro-4-[(3-fluorobenzyl)oxy]phenyl}-6-[5-({[2-(methanesulphonyl)ethyl]amino}methyl)-2-furyl]-4-quinazolinamine dimesylate monohydrate] | – | ~4360 | 5800 | Solubility as free base ([1]; dimesylate monohydrate): 1) ~4.70 mg/ml; Solubility as salt ([1]; dimesylate monohydrate): 1) 6.25 mg/ml
CS(=O)(=O)CCNCc1ccc(-c2ccc3ncnc(Nc4ccc(OCc5cccc(F)c5)c(Cl)c4)c3c2)o1.C[C@H](O)C(=O)O [Mono-L-lactate, N-{3-Chloro-4-[(3-fluorobenzyl)oxy]phenyl}-6-[5-({[2-(methanesulphonyl)ethyl]amino}methyl)-2-furyl]-4-quinazolinamine mono-L-lactate] | – | ~7300 | 8500 | Solubility as salt [1]: 2) 7.9 mg/ml
CS(=O)(=O)CCNCc1ccc(-c2ccc3ncnc(Nc4ccc(OCc5cccc(F)c5)c(Cl)c4)c3c2)o1.O=C(O)CC(O)(CC(=O)O)C(=O)O [Monocitrate, N-{3-Chloro-4-[(3-fluorobenzyl)oxy]phenyl}-6-[5-({[2-(methanesulphonyl)ethyl]amino}methyl)-2-furyl]-4-quinazolinamine monocitrate] | – | 10 | 10 | –
CS(=O)(=O)CCNCc1ccc(-c2ccc3ncnc(Nc4ccc(OCc5cccc(F)c5)c(Cl)c4)c3c2)o1.O=C(O)/C=C\C(=O)O.O=C(O)/C=C\C(=O)O [Dimaleate, N-{3-Chloro-4-[(3-fluorobenzyl)oxy]phenyl}-6-[5-({[2-(methanesulphonyl)ethyl]amino}methyl)-2-furyl]-4-quinazolinamine dimaleate] | – | 130 | 180 | Solubility as free base ([1]; dimaleate): 0.15 mg/mL and 0.14 mg/mL; Solubility as salt ([1]; dimaleate): 0.20 mg/mL and 0.19 mg/mL
CS(=O)(=O)CCNCc1ccc(-c2ccc3ncnc(Nc4ccc(OCc5cccc(F)c5)c(Cl)c4)c3c2)o1.O.O=C(O)/C=C\C(=O)O.O=C(O)/C=C\C(=O)O [Dimaleate monohydrate, N-{3-Chloro-4-[(3-fluorobenzyl)oxy]phenyl}-6-[5-({[2-(methanesulphonyl)ethyl]amino}methyl)-2-furyl]-4-quinazolinamine dimaleate monohydrate] | – | 40 | 60 | –
CS(=O)(=O)CCNCc1ccc(-c2ccc3ncnc(Nc4ccc(OCc5cccc(F)c5)c(Cl)c4)c3c2)o1 [GW572016X, N-{3-Chloro-4-[(3-fluorobenzyl)oxy]phenyl}-6-[5-({[2-(methanesulphonyl)ethyl]amino}methyl)-2-furyl]-4-quinazolinamine] | – | – | – | IC50 [2]: < 5 µM; IC50 (breast (BT474) cell line): < 5 µM; IC50 [3]: < 5 µM
CS(=O)(=O)CCNCc1ccc(-c2ccc3ncnc(Nc4ccc(OCc5cccc(F)c5)c(Cl)c4)c3c2)o1.O=C(O)C[C@H](O)C(=O)O [Mono L-malate, N-{3-Chloro-4-[(3-fluorobenzyl)oxy]phenyl}-6-[5-({[2-(methanesulphonyl)ethyl]amino}methyl)-2-furyl]-4-quinazolinamine mono-L-malate] | – | 50 | 60 | Solubility as salt ([1]; mono-L-malate): 0.07 mg/mL
CCS(=O)(=O)O.CS(=O)(=O)CCNCc1ccc(-c2ccc3ncnc(Nc4ccc(OCc5cccc(F)c5)c(Cl)c4)c3c2)o1 [Monoesylate, N-{3-Chloro-4-[(3-fluorobenzyl)oxy]phenyl}-6-[5-({[2-(methanesulphonyl)ethyl]amino}methyl)-2-furyl]-4-quinazolinamine monoesylate] | 0.53 mg/mL | 520 | 620 | Solubility as salt [1]: 0.63 mg/mL
CS(=O)(=O)CCNCc1ccc(-c2ccc3ncnc(Nc4ccc(OCc5cccc(F)c5)c(Cl)c4)c3c2)o1.O=C(O)CCC(=O)O [Succinate, N-{3-Chloro-4-[(3-fluorobenzyl)oxy]phenyl}-6-[5-({[2-(methanesulphonyl)ethyl]amino}methyl)-2-furyl]-4-quinazolinamine monosuccinate] | <LoD | – | – | Solubility as salt [1]: <LoD
CS(=O)(=O)CCNCc1ccc(-c2ccc3ncnc(Nc4ccc(OCc5cccc(F)c5)c(Cl)c4)c3c2)o1.CS(=O)(=O)O [Monomesylate, N-{3-Chloro-4-[(3-fluorobenzyl)oxy]phenyl}-6-[5-({[2-(methanesulphonyl)ethyl]amino}methyl)-2-furyl]-4-quinazolinamine monomesylate] | – | 330 | 390 | –
CS(=O)(=O)CCNCc1ccc(-c2ccc3ncnc(Nc4ccc(OCc5cccc(F)c5)c(Cl)c4)c3c2)o1.O=S(=O)(O)c1ccccc1.O=S(=O)(O)c1ccccc1 [Dibesylate, N-{3-Chloro-4-[(3-fluorobenzyl)oxy]phenyl}-6-[5-({[2-(methanesulphonyl)ethyl]amino}methyl)-2-furyl]-4-quinazolinamine dibesylate] | <LoD | – | – | –
Lapatinib Monofumarate | <LoD | – | – | pH of the remaining solution [1]: 4.0
CS(=O)(=O)CCNCc1ccc(-c2ccc3ncnc(Nc4ccc(OCc5cccc(F)c5)c(Cl)c4)c3c2)o1.O=C(O)c1ccccc1.O=C(O)c1ccccc1 [Dibenzoate, N-{3-Chloro-4-[(3-fluorobenzyl)oxy]phenyl}-6-[5-({[2-(methanesulphonyl)ethyl]amino}methyl)-2-furyl]-4-quinazolinamine dibenzoate] | – | 40 | 60 | –
CS(=O)(=O)CCNCc1ccc(-c2ccc3ncnc(Nc4ccc(OCc5cccc(F)c5)c(Cl)c4)c3c2)o1.CS(=O)(=O)O.CS(=O)(=O)O.O.O [Dimesylate dehydrate, N-{3-Chloro-4-[(3-fluorobenzyl)oxy]phenyl}-6-[5-({[2-(methanesulphonyl)ethyl]amino}methyl)-2-furyl]-4-quinazolinamine dimesylate dihydrate] | – | ~15300 | ~21300 | –
Lapatinib Di-L-Malate | 0.91 mg/mL | – | – | pH of the remaining solution [1]: 3.2; Solubility as salt [1]: 1.33 mg/mL
